{"source": "paper PMC8447253", "about": "(2021)", "test_in_all_cases": "emission titration (737 nm), Bard equation", "conditions_in_all_cases": "K+ (50 mM potassium phosphate), pH 7, enantiomer by table order, per base", "key": {"[1]": {"tested_on": "d(GCGCGCGCGC)2; (GC)5 (DNA, duplex) GCGCGCGCGC"}, "[2]": {"tested_on": "d(ATTATTATTATATTA)/d(TAATATAATAATAAT) (AT DNA) (DNA, duplex) ATTATTATTATATTA/TAATATAATAATAAT"}, "[3]": {"tested_on": "d(CGCAAATTTGCG)2 (DNA, duplex) CGCAAATTTGCG"}, "[4]": {"tested_on": "d(CGCGAATTCGCG)2 (DNA, duplex) CGCGAATTCGCG"}}}
{"smiles": "Cc1cnc2c(ccc3c(C)c(C)cnc32)c1C.Cc1cnc2c(ccc3c(C)c(C)cnc32)c1C.[Cr+3].c1ccc2nc3c4cccnc4c4ncccc4c3nc2c1", "values": [{"measurement": "KDNA", "setting": "[1]; site size n 3.1 ± 0.1 base pairs", "value": 770000, "unit": "M⁻¹"}, {"measurement": "KDNA", "setting": "[1]; site size n 4.8 ± 0.2 base pairs", "value": 610000, "unit": "M⁻¹"}, {"measurement": "KDNA", "setting": "[2]; site size n 2.25 ± 0.05 base pairs", "value": "4e+06", "unit": "M⁻¹"}, {"measurement": "KDNA", "setting": "[2]; site size n 2.28 ± 0.05 base pairs", "value": "3e+06", "unit": "M⁻¹"}, {"measurement": "KDNA", "setting": "[3]; site size n 1.92 ± 0.04 base pairs", "value": "1.7e+06", "unit": "M⁻¹"}, {"measurement": "KDNA", "setting": "[3]; site size n 2.10 ± 0.09 base pairs", "value": 480000, "unit": "M⁻¹"}, {"measurement": "KDNA", "setting": "[4]; site size n 1.6 ± 0.1 base pairs", "value": "1.4e+06", "unit": "M⁻¹"}, {"measurement": "KDNA", "setting": "[4]; site size n 1.7 ± 0.1 base pairs", "value": 510000, "unit": "M⁻¹"}]}
